From US20110053913A1, “Methods and Therapies for Alleviating Pain” (priority 2009, published 2011)

Experiments:
rats [1] = test: Potentiation of morphine analgesia and acute morphine tolerance, tail flick and paw pressure tests; format: in vivo, rat
Experimental: (§1) Experiments were conducted using adult male Sprague-Dawley rats (Charles River, St. Constant, QC, Canada) weighing between 200-250 grams. Animals were housed individually in standard laboratory cages, maintained on a 12-hour light/dark cycle, and provided with food and water ad libitum. The surgical placement of chronic indwelling intrathecal catheters (polyethylene PE 10 tubing, 7.5 cm) into the spinal subarachnoid space was made under 4% halothane anesthesia, using the method of Yaksh and Rudy Physiol. Behav. 1976 7:1032-1036). Specifically, the anesthetized animal was placed prone in a stereotaxic frame, a small incision made at the back of the neck, and the atlanto-occipital membrane overlying the cisterna magna was exposed and punctured with a blunt needle. The catheter was inserted through the cisternal opening and slowly advanced caudally to position its tip at the lumbar enlargement. The rostral end of the catheter was exteriorized at the top of the head and the wound closed with sutures. Animals were allowed 3-4 days recovery from surgery and only those free from neurological deficits, such as the hindlimb or forelimb paralysis or gross motor dysfunction, were included in the study. All drugs were injected intrathecally as solutions dissolved in physiological saline (0.9%) through the exteriorized portion of the catheter at a volume of 10 μl followed by a 10 μl volume of 0.9% saline to flush the catheter.
(§2) The tail flick test (D'amour & Smith, J. Pharmacol. Exp. Ther. 1941 72:74-79) was used to measure the response to a thermal nociceptive stimulus. Radiant heat was applied to the distal third of the animal's tail and the response latency for tail withdrawal from the source was recorded using an analgesia meter (Owen et al., J. Pharmacol. Methods 1981 6:33-37)). The stimulus intensity was adjusted to yield baseline response latencies between 2-3 seconds. To minimize tail damage, a cutoff of 10 seconds was used as an indicator of maximum antinociception.
(§3) The paw pressure test (Loomis et al., Pharm. Biochem. 1987 26:131-139) was used to measure the response to a mechanical nociceptive stimulus. Pressure was applied to the dorsal surface of the hind paw using an inverted air-filled syringe connected to a gauge and the value at which the animal withdrew its paw was recorded. A maximum cutoff pressure of 300 mmHg was used to avoid tissue damage. Previous experience has established that there is no significant interaction between the tail flick and paw pressure tests (Loomis et al., Can. J. Physiol. Pharmacol. 1985 63:656-662).
The effects of ultra-low doses of atipemazole, yohimbine, idazoxan and mirtazapine, as well as the selective alpha-2A receptor antagonist BRL 44408, were also tested for potentiation of acute analgesic action of spinal or subcutaneous morphine. Acute opioid tolerance was induced by three serial intrathecal morphine injections (15 μg) or systemic morphine injections (2.5 mg/kg sc). Rats were administered morphine alone, a combination of morphine (15 μg intrathecally or 2.5 mg/kg sc) and an ultra low dose of atipemazole, yohimbine, idazoxan, mirtazapine, or BRL 44408. Results for atipemazole are depicted in FIGS. 2A, 2B, 11A and 11B. Results for yohimbine are depicted in FIGS. 6A and 6B. Results for idazoxan are depicted in FIGS. 10A and 10B. Results for mirtazapine are depicted in FIGS. 8A and 8B. Results for BRL 44408 are depicted in FIGS. 14A and 14B.
For the in vivo studies, tail flick and paw pressure values were converted to a maximum percentage effect (M.P.E.): M.P.E.=100×[post-drug response−baseline response]/[maximum response−baseline response]. Data represented in the figures are expressed as mean (±S.E.M.). The ED50 values were determined using a non-linear regression analysis (Prism 2, GraphPad Software Inc., San Diego, Calif., USA). […]

rats [2] = conditions: morphine, cited from earlier work
rats [3] = test: Analgesic effect of ultra-low dose alpha-2 receptor antagonist administered alone, tail flick and paw pressure tests; format: in vivo, rat
Experimental: Baseline latencies were obtained every 5 minutes for 15 minutes prior to injection of either vehicle (saline 0.9%) or atipemazole and tested every 30 minutes for 3 hours. Data were converted to % maximum possible effect.
as §1, §2, §3
The analgesic effect of an ultra-low dose of an alpha-2 receptor antagonist administered alone was examined. Atipemazole was administered systemically, in three successive administrations, at 20 ng/kg or 200 ng/kg.
The analgesic effect of an ultra-low dose of an alpha-2A receptor antagonist administered alone was also examined. BRL 44408 was administered intrathecally, in a single administration, at 1.65 ng. In another study, three successive doses of BRL 44408 (1.65 ng) were administered intrathecally.
For the in vivo studies, tail flick and paw pressure values were converted to a maximum percentage effect (M.P.E.): M.P.E.=100×[post-drug response−baseline response]/[maximum response−baseline response]. Data represented in the figures are expressed as mean (±S.E.M.). The ED50 values were determined using a non-linear regression analysis (Prism 2, GraphPad Software Inc., San Diego, Calif., USA). Statistical significance (p<0.05, 0.01. or 0.001) was determined using a one-way analysis of variance followed by a Student Newman-Keuls post hoc test for multiple comparisons between groups.

rats [4] = test: Formalin test, persistent inflammatory pain model; format: in vivo, rat; conditions: atipemazole alone sc 20 minutes prior to 1% formalin into hind paw; dark phase; N=4; FIGS. 15A, 15B
Experimental: In a further experiment, the analgesic effect of atipemazole was examined using the formalin test, a persistent inflammatory pain model. The experiment was conducted with rats during the dark phase of the light-dark cycle. Rats were administered 1% formalin and pain behaviour was assessed by a weighted score. Atipemazole, morphine, or vehicle was injected by subcutaneous injection 20 minutes prior to formalin injection into the plantar surface of the rat hind paw. The behavior was evaluated in 5 min intervals, and the severity of the response was determined.
The formalin test is a widely used tonic model of continuous pain resulting from formalin-induced tissue injury. It is a useful model, particularly for the screening of novel compounds, since it encompasses inflammatory, neurogenic, and central mechanisms of nociception. We used 1% formalin and assessed pain behavior by a weighted score. […]
Briefly, the nociceptive behavior was assessed as follows: (1) no favouring of the injected hind paw, (2) favouring, (3) complete elevation of the hind paw from the floor, and (4) licking or flinching. The behavior was evaluated in 5 min intervals, and the severity of the response was determined by the following formula: (0×the time spent in category 1, 1×the time spent in category 2, 2×the time spent in category 3, 3×the time spent in category 4).

spinal alpha-2 receptors = test: Inhibition of spinal clonidine analgesia by alpha-2 receptor antagonists (tail flick / paw pressure); format: in vivo, rat; conditions: tail flick test, FIG. 12
Experimental: Experiments were conducted using adult male Sprague-Dawley rats (Charles River, St. Constant, QC, Canada) weighing between 200-250 grams. Animals were housed individually in standard laboratory cages, maintained on a 12-hour light/dark cycle, and provided with food and water ad libitum. The surgical placement of chronic indwelling intrathecal catheters (polyethylene PE 10 tubing, 7.5 cm) into the spinal subarachnoid space was made under 4% halothane anesthesia, using the method of Yaksh and Rudy Physiol. Behav. 1976 7:1032-1036). […]
The tail flick test (D'amour & Smith, J. Pharmacol. Exp. Ther. 1941 72:74-79) was used to measure the response to a thermal nociceptive stimulus. Radiant heat was applied to the distal third of the animal's tail and the response latency for tail withdrawal from the source was recorded using an analgesia meter (Owen et al., J. Pharmacol. Methods 1981 6:33-37)). […]
The paw pressure test (Loomis et al., Pharm. Biochem. 1987 26:131-139) was used to measure the response to a mechanical nociceptive stimulus. Pressure was applied to the dorsal surface of the hind paw using an inverted air-filled syringe connected to a gauge and the value at which the animal withdrew its paw was recorded. […]

**Q.** Which “analgesic response to repeated morphine” value (rats [1]; morphine 2.5 mg/kg sc alone, three injections at 90 minute intervals, both tests, FIGS. 11A, 11B) does the source give for CN1CC[C@]23c4c5ccc(O)c4O[C@H]2[C@@H](O)C=C[C@H]3[C@H]1C5 [morphine] here?
**A.** rapid decay of the analgesic response

**Q.** And the “decline of the analgesic effect of morphine observed after the first injection” value (rats [1]; three successive intrathecal doses of morphine 15 μg at 90 minute intervals, end of the 240 minute test period, FIGS. 2A, 2B)?
**A.** ~80%

**Q.** And the “ED50 dose during the dark phase” value (rats [2]; dark phase of light-dark cycle)?
**A.** 0.25 mg/kg

**Q.** What about the “ED50 dose during the light phase” value (rats [2]; light phase of light-dark cycle) of the same molecule?
**A.** 5 mg/kg

**Q.** What about the “potency in the dark phase compared to the light phase” value (rats [2]; nociceptive testing) of the same molecule?
**A.** 10 fold

**Q.** With CCC1(c2cnc[nH]2)Cc2ccccc2C1 [atipemazole] as the molecule, how does the “analgesic response, antagonist alone, repeated administration” value (from here on “analgesic response, antagonist alone”) (rats [3]; atipemazole 0.8 ng intrathecally alone at 90 minute intervals, FIGS. 2A, 2B) read?
**A.** incremental but weak analgesic response

**Q.** What about the “analgesic effect, antagonist alone” value (rats [3]; atipemazole 0.8 ng intrathecally alone, FIGS. 3A, 3B) of the same molecule?
**A.** weak, albeit insignificant, analgesic effect

**Q.** What about the “antinociceptive effect in the tail flick test, dark phase” value (rats [3]; atipemazole 200 ng/kg sc, rats on reverse light/dark cycle, administered during the dark phase, tested every 30 minutes for 3 hours) of the same molecule?
**A.** did not produce a significant antinociceptive effect

**Q.** And the “analgesic response in the tail flick test, antagonist alone” value (rats [3]; atipemazole 20 and 200 ng/kg sc alone at 90 minute intervals, tail flick, FIG. 11A)?
**A.** delayed analgesic response

**Q.** What about the “effect on acute tolerance to the analgesic actions of spinal morphine” value (rats [1]; atipemazole 0.8 ng with morphine 15 μg intrathecally, three injections at 90 minute intervals, FIGS. 2A, 2B) of the same molecule?
**A.** prevented the decline of the analgesic effect of morphine

**Q.** What about the “effect on acute morphine analgesia” value (rats [1]; atipemazole 0.8 or 0.08 ng with morphine 15 μg intrathecally, FIGS. 3A, 3B) of the same molecule?
**A.** potentiates opioid analgesia

**Q.** And the “effect on acute tolerance to morphine (loss of response)” value (rats [1]; atipemazole 20 or 200 ng/kg sc with morphine 2.5 mg/kg sc, three injections at 90 minute intervals, FIGS. 11A, 11B)?
**A.** significantly reduced the loss of response to morphine alone

**Q.** What about the “analgesia in the formalin test (weighted pain score)” value (rats [4]) of the same molecule?
**A.** as effective as morphine

**Q.** What does the source list for CC1c2ccccc2CN1CC1=NCCN1.O=C(O)/C=C\C(=O)O (stereo not drawn) [BRL 44408, 2-[2H-(1-Methyl-1,3-dihydroisoindole)methyl]-4,5-dihydroimidazole maleate]?
**A.** analgesia after a single administration, antagonist alone (rats [3]; BRL 44408 1.65 ng intrathecally alone, single administration, relative to saline, FIGS. 13A, 13B): significant analgesia, relative to saline administration, after 60 minutes; course and duration of analgesia after a single administration, antagonist alone (rats [3]; BRL 44408 1.65 ng intrathecally alone, single administration, FIGS. 13A, 13B): increased and persisted for the duration of the study (180 minutes); effect on morphine analgesia after a single administration (rats [1]; BRL 44408 1.65 ng with morphine 15 μg intrathecally once, relative to morphine alone, FIGS. 13A, 13B): significantly increased morphine analgesia; effect on analgesic action of morphine in the acute tolerance study (rats [1]; BRL 44408 1.65 ng with morphine intrathecally, three injections at 90 minute intervals, FIGS. 14A, 14B): increased the acute analgesic action of morphine; antagonism of clonidine analgesia (spinal alpha-2 receptors; BRL 44408 3.3 μg with clonidine 13.3 μg intrathecally): did not antagonize clonidine; antagonism of clonidine analgesia (spinal alpha-2 receptors; BRL 44408 16.5 μg with clonidine 13.3 μg intrathecally): antagonized clonidine analgesia

**Q.** With c1ccc2c(c1)OCC(C1=NCCN1)O2 (stereo not drawn) [idazoxan] as the molecule, how does the “analgesic response, antagonist alone” value (rats [3]; idazoxan intrathecally alone, ultra-low dose, repeated) read?
**A.** no significant analgesic response

**Q.** Which “analgesic response, antagonist alone” value (rats [3]; yohimbine 0.024 ng intrathecally alone at 90 minute intervals, FIGS. 6A, 6B) does the source give for COC(=O)[C@@H]1[C@H]2C[C@H]3c4[nH]c5ccccc5c4CCN3C[C@@H]2CC[C@@H]1O [yohimbine] here?
**A.** no significant analgesic response
